Like-named read-outs stand apart in the source and are kept apart here.
What was measured:
Type in all cases: biochemical
PI3K γ (p110γ) = target: T1, PI3K γ (p110γ) (Homo sapiens, UniProt P48736); assay: PI 3-Kinase (human) HTRF assay, PI3K γ; settings: read-out: PI3K γ IC50
T1 construct: purchased Upstate / Millipore Corporation
Protocol: Briefly, the assay is a time resolved FRET assay that indirectly measures PIP3 product formed by the activity of a PI3-K. The kinase reaction is performed in a microtiter plate (e.g., a 384 well microtiter plate). The total reaction volume is approximately 20 ul per well. In the first step, each well receives 2 ul of test compound in 20% dimethylsulphoxide resulting in a 2% DMSO final concentration. […] The plate is sealed and incubated for 15 minutes at room temperature. […] The plate is sealed and incubated for 1 hour at room temperature. The reaction is stopped by adding 5 ul of Stop Solution per well and then 5 ul of Detection Mix is added per well. The plate is sealed, incubated for 1 hour at room temperature, and then read on an appropriate plate reader. Data is analyzed and IC50s are generated using GraphPad Prism 5.

PI3K β (p110β/p85α) = target: T2, PI3K β (p110β/p85α) (Homo sapiens, UniProt P42338); assay: PI 3-Kinase (human) HTRF assay, PI3K β; settings: read-out: PI3K β IC50
T2 construct: purchased Upstate / Millipore Corporation

PI3K δ = target: T3, PI3K δ (Homo sapiens, UniProt O00329); assay: PI 3-Kinase (human) HTRF assay, PI3K δ; settings: read-out: PI3K δ IC50
T3 construct: purchased Upstate / Millipore Corporation

PI3K α (p110α/p85α) = target: T4, PI3K α (p110α/p85α) (Homo sapiens, UniProt P42336); assay: PI 3-Kinase (human) HTRF assay, PI3K α; settings: read-out: PI3K α IC50
T4 construct: purchased Upstate / Millipore Corporation
T4 sequence (P42336 whole entry): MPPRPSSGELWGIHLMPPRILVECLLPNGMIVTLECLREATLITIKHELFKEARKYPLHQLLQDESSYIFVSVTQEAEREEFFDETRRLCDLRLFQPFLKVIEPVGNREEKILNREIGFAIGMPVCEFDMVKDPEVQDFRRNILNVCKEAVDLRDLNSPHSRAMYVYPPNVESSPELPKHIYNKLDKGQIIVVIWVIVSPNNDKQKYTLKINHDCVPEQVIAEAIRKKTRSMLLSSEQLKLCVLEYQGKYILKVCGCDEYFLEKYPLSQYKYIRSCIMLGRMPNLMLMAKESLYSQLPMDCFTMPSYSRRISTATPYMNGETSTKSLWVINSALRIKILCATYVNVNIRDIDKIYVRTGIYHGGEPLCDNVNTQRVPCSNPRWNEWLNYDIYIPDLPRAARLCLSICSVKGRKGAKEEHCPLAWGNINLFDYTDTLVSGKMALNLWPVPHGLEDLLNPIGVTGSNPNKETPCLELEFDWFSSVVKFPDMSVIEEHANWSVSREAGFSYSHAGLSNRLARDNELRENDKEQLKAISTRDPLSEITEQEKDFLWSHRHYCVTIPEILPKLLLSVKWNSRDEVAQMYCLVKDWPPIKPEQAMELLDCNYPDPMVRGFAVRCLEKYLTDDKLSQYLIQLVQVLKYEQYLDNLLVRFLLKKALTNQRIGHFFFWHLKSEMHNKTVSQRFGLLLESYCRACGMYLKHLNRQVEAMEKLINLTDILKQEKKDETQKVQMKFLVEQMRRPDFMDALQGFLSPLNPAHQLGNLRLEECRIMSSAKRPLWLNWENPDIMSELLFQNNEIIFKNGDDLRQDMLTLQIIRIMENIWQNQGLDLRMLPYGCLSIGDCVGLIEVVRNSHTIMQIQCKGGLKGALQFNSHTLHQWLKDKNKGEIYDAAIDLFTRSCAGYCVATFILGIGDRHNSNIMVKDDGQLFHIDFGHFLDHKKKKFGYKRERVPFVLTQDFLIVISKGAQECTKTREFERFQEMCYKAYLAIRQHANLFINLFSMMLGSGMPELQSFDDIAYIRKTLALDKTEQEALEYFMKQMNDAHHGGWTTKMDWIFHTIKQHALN
T4 sequence (P27986 whole entry partner): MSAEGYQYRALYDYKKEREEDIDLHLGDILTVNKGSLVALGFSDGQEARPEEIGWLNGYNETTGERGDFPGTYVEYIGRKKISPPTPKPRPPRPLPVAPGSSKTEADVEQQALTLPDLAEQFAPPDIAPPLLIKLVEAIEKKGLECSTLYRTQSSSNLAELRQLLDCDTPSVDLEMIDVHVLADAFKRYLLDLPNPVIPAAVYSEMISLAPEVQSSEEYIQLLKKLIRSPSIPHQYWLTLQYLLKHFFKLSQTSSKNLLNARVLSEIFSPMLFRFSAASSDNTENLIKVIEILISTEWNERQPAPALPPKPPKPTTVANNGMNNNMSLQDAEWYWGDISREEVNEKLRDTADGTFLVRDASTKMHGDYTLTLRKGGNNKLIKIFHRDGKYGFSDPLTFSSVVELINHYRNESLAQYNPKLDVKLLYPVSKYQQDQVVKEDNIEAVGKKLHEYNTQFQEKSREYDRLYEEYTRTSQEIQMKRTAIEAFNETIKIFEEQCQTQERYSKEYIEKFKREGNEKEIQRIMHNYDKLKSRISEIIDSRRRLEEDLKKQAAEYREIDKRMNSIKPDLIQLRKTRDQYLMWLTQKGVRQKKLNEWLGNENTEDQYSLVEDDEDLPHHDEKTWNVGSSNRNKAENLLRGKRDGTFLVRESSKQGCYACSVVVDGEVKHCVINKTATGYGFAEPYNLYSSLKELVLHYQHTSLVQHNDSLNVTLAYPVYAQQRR

T1 sequence (P48736 whole entry): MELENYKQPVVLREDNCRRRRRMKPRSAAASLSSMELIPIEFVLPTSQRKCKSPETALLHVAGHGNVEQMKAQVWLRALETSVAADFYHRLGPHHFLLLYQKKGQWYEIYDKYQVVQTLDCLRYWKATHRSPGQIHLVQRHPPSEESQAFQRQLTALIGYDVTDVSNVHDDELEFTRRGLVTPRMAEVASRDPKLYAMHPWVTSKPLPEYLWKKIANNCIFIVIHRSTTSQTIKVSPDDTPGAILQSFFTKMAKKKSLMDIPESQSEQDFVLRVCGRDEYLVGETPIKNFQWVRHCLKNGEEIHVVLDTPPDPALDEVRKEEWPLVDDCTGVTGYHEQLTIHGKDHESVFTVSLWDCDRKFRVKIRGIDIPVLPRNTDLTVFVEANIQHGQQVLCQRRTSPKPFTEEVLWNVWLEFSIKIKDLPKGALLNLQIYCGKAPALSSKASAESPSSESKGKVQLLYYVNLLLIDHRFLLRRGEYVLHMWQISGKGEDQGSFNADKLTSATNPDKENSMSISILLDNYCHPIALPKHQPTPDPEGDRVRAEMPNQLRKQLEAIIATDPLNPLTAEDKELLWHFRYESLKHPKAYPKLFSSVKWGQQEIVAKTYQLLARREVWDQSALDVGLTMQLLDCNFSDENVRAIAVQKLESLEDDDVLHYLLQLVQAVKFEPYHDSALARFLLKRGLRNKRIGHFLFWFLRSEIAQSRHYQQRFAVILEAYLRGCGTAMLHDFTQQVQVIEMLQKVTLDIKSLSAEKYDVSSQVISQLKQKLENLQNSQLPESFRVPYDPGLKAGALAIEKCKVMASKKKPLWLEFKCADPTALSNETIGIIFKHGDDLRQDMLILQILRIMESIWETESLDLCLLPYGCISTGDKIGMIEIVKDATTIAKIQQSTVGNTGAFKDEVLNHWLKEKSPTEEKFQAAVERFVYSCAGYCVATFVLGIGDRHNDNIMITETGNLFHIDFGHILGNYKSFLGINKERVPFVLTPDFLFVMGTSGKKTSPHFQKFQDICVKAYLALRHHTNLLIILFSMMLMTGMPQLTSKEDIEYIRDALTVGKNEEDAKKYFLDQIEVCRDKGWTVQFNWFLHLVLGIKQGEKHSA
T2 sequence (P42338 whole entry): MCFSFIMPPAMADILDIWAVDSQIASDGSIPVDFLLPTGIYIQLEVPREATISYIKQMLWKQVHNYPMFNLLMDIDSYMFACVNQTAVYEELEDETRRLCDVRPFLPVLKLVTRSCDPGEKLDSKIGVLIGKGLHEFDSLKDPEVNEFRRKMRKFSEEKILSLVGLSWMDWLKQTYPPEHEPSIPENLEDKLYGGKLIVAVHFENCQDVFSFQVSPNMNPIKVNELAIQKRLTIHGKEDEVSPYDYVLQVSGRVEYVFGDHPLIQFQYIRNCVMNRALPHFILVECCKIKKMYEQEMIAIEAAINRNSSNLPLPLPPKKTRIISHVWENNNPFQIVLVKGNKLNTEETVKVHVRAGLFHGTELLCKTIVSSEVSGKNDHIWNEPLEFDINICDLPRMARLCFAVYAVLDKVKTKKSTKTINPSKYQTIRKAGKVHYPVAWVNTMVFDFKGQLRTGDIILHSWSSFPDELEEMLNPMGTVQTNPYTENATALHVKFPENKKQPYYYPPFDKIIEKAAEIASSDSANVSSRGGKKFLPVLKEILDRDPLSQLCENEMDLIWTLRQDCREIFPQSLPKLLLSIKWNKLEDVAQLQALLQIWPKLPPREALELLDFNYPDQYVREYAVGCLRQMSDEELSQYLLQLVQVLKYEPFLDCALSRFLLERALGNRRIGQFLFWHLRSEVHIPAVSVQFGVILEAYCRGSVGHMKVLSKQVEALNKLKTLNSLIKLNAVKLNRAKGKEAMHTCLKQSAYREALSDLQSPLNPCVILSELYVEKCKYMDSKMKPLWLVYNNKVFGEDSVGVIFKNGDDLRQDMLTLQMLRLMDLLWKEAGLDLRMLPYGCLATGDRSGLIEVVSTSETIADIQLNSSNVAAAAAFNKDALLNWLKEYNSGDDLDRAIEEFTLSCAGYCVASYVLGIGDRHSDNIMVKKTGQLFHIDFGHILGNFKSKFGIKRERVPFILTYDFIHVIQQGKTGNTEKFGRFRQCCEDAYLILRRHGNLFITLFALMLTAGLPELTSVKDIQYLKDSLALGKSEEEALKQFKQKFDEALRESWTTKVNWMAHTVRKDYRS
T2 sequence (P27986 whole entry partner): as the sequence (P27986 whole entry partner) above
T3 sequence (O00329 whole entry): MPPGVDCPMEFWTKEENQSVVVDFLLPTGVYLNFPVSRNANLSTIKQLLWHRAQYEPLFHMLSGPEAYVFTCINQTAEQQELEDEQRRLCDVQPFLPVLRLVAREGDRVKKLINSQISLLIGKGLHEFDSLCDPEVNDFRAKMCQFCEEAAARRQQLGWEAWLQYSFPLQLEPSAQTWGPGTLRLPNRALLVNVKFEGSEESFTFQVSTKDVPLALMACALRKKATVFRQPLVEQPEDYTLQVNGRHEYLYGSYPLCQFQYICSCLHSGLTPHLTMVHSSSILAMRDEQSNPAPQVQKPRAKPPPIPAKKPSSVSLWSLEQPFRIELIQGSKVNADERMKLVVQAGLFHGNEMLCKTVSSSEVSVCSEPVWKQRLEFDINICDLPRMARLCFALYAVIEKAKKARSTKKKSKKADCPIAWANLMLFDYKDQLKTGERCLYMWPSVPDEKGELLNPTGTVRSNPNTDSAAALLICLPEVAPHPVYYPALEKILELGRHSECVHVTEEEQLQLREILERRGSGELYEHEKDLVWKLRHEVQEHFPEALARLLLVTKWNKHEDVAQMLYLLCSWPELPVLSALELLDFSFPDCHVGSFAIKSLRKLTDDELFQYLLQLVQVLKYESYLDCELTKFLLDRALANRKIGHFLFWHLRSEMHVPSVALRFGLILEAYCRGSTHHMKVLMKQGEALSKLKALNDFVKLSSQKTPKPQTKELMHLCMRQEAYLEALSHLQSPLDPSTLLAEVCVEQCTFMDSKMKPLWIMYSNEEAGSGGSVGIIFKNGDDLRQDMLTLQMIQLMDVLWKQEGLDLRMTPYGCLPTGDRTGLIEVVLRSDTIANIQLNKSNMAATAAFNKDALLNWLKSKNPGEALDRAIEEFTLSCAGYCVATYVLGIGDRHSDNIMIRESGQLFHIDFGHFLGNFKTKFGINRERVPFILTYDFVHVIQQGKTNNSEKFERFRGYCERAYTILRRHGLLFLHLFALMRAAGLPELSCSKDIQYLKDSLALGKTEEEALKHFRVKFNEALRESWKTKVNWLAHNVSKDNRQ
T3 sequence (P27986 whole entry partner): as the sequence (P27986 whole entry partner) above

Compound | IC50 (PI3K γ (p110γ)) | IC50 (PI3K β (p110β/p85α)) | IC50 (PI3K δ) | IC50 (PI3K α (p110α/p85α)) | IC50 (PI3K γ (p110γ); Table 4 (PI3K α inhibitors)) | IC50 (PI3K β (p110β/p85α); Table 4 (PI3K α inhibitors)) | IC50 (PI3K δ; Table 4 (PI3K α inhibitors)) | IC50 (PI3K α (p110α/p85α); Table 4 (PI3K α inhibitors))
CC(=O)Nc1nc2cc(-c3cc(F)c4oc(N)nc4c3)ccc2s1 [Compound 435] | < 0.1 µM | < 10 µM | > 10 µM | < 10 µM | – | – | – | –
CN1CCC(n2cnc3ccc(-c4cnc(Cl)c(NS(=O)(=O)c5ccccc5)c4)cc3c2=O)CC1 [Compound 527] | < 1 µM | < 0.1 µM | < 0.1 µM | < 0.1 µM | – | – | – | –
Nc1nc2cc(-c3ccc4ncc(C(=O)N5CC(F)C5)n4c3)ccc2o1 [Compound 468] | < 0.1 µM | < 10 µM | > 10 µM | < 0.1 µM | – | – | – | –
CN1CCN(n2cnc3ccc(-c4ccc5oc(N)nc5c4)cc3c2=O)CC1 [Compound 446] | > 10 µM | > 10 µM | > 10 µM | < 1 µM | – | – | – | –
Nc1nc2cc(-c3ccc4ncc(C(=O)N5CCOCC5)n4c3)cc(Cl)c2o1 [Compound 359] | < 0.1 µM | < 1 µM | < 10 µM | < 0.1 µM | – | – | – | –
Nc1nc2cc(-c3ccc4ncnc(NC5CCOCC5)c4c3)ccc2o1 [Compound 24] | < 0.1 µM | < 1 µM | < 0.1 µM | < 0.1 µM | – | – | – | –
Nc1nc2cc(-c3cn4c(-c5ccncc5)cnc4cn3)ccc2o1 [Compound 68] | < 1 µM | < 10 µM | < 10 µM | < 0.1 µM | – | – | – | –
CC(=O)N1CCC(Nc2ncnc3ccc(-c4ccc5oc(N)nc5c4)nc23)CC1 [Compound 211] | < 0.1 µM | < 0.1 µM | < 0.1 µM | < 0.1 µM | – | – | – | –
Nc1nc2cc(-c3ccc4ncc(C(=O)N5CCOCC5)n4c3)cc(F)c2o1 [Compound 360] | < 0.1 µM | < 1 µM | < 10 µM | < 0.1 µM | – | – | – | –
CS(=O)(=O)Nc1cccc(-c2ccc3ncc(C(=O)N4CCOCC4)n3c2)c1 [Compound 443] | > 10 µM | > 10 µM | > 10 µM | > 10 µM | – | – | – | –
Nc1nc2ccc(-c3ccc4nnc(C(=O)N5CCCC5)n4c3)cc2o1 [Compound 305] | > 10 µM | > 10 µM | > 10 µM | < 10 µM | – | – | – | –
CN1CCC(NC(=O)c2cnc3ccc(-c4ccc5oc(N)nc5c4)cn23)CC1 [Compound 159] | < 1 µM | < 1 µM | < 0.1 µM | < 0.1 µM | – | – | – | –
Cc1c(-c2ccc3ncc(C(=O)N4CCOCC4)n3c2)ccc2oc(N)nc12 [Compound 369] | > 10 µM | > 10 µM | > 10 µM | > 10 µM | – | – | – | –
CN1CC2CN(C(=O)c3cnc4ccc(-c5ccc6oc(N)nc6c5)cn34)CC2C1 (stereo not drawn) [Compound 533] | < 1 µM | < 1 µM | < 1 µM | < 0.1 µM | – | – | – | –
Nc1nc2ccc(-c3ccc4ncn(C5CCOCC5)c(=O)c4c3)cc2o1 [Compound 63] | > 10 µM | > 10 µM | > 10 µM | < 10 µM | – | – | – | –
Nc1nc2cc(-c3ccc4ncc(N5CCNCC5=O)nc4c3)ccc2o1 [Compound 389] | < 10 µM | > 10 µM | > 10 µM | < 1 µM | – | – | – | –
Nc1nc2cccc(-c3ccc4nccc(-c5ccncc5)c4c3)c2s1 [Compound 17] | < 0.1 µM | < 1 µM | < 1 µM | < 0.1 µM | – | – | – | –
CN1CCCN(c2cnc3ccc(-c4ccc5oc(N)nc5c4)cc3n2)CC1 [Compound 136] | < 10 µM | < 1 µM | > 10 µM | < 1 µM | – | – | – | –
Nc1nc2cc(-c3ccc4ncc(N5CCn6cncc6C5)nc4c3)ccc2o1 [Compound 394] | < 0.1 µM | < 0.1 µM | < 1 µM | < 0.1 µM | – | – | – | –
CCN(CC)CC(=O)N1CCN(c2cnc3ccc(-c4ccc5oc(N)nc5c4)cc3n2)CC1 [Compound 279] | < 10 µM | < 10 µM | < 10 µM | < 0.1 µM | – | – | – | –

Compound | IC50 (PI3K γ (p110γ)) | IC50 (PI3K β (p110β/p85α)) | IC50 (PI3K δ) | IC50 (PI3K α (p110α/p85α)) | IC50 (PI3K γ (p110γ); Table 4 (PI3K α inhibitors)) | IC50 (PI3K β (p110β/p85α); Table 4 (PI3K α inhibitors)) | IC50 (PI3K δ; Table 4 (PI3K α inhibitors)) | IC50 (PI3K α (p110α/p85α); Table 4 (PI3K α inhibitors))
Nc1nc2cc(-c3ccc4ncc(C(=O)N5CCN(C6CC6)CC5)n4c3)ccc2o1 [Compound 263] | < 10 µM | < 10 µM | < 10 µM | < 0.1 µM | – | – | – | –
Nc1nc2cc(-c3ccc4ncc(C(=O)N5CCOCC5)n4c3)ccc2s1 [Compound 126] | < 1 µM | < 10 µM | > 10 µM | < 1 µM | – | – | – | –
Nc1nc2cc(-c3ccc4ncc(C(=O)N5CC[C@H](F)C5)n4c3)ccc2o1 [Compound 476] | < 0.1 µM | > 10 µM | > 10 µM | < 0.1 µM | – | – | – | –
Nc1nc2cc(-c3ccc4ncc(N5CCN(CC(F)(F)F)CC5)nc4c3)ccc2o1 [Compound 395] | < 0.1 µM | > 10 µM | > 10 µM | < 0.1 µM | – | – | – | –
CN1CCC(c2cnc3ccc(-c4ccc5oc(N)nc5c4)cc3n2)CC1 [Compound 385] | > 10 µM | < 10 µM | > 10 µM | < 0.1 µM | – | – | – | –
Nc1nc2cc(-c3ccc4ncc(N5CCN(C(=O)C6(N)CC6)CC5)cc4n3)ccc2o1 [Compound 593] | – | – | – | – | < 0.1 µM | < 1 µM | < 1 µM | < 0.1 µM
Nc1nc2cccc(-c3ccc4ncc(C(=O)N5CCOCC5)n4c3)c2s1 [Compound 485] | > 10 µM | > 10 µM | > 10 µM | < 10 µM | – | – | – | –
CO[C@@H]1CCN(C(=O)c2cnc3ccc(-c4ccc5oc(N)nc5c4)cn23)C1 [Compound 464] | < 1 µM | > 10 µM | > 10 µM | < 0.1 µM | – | – | – | –
Nc1nc2cc(-c3c[nH]c4nccc(-c5ccncc5)c34)ccc2o1 [Compound 25] | < 10 µM | > 10 µM | > 10 µM | < 10 µM | – | – | – | –
CC(C)N1CCC(n2cnc3ccc(-c4cncc(NS(=O)(=O)c5ccc(F)cc5F)c4)cc3c2=O)CC1 [Compound 519] | < 1 µM | < 10 µM | < 10 µM | < 1 µM | – | – | – | –
Nc1nc2nc(-c3ccc4ncc(C(=O)N5CCOCC5)n4c3)ccc2o1 [Compound 412] | > 10 µM | > 10 µM | > 10 µM | < 10 µM | – | – | – | –
CS(=O)(=O)N1CCN(c2cnc3ccc(-c4ccc5oc(N)nc5c4)cc3n2)CC1 [Compound 86] | < 0.1 µM | < 1 µM | < 1 µM | < 0.1 µM | – | – | – | –
Nc1nc2cc(-c3ccc4ncc(C(=O)N5CCOCC5)cc4c3)ccc2o1 [Compound 97] | > 10 µM | > 10 µM | > 10 µM | < 10 µM | – | – | – | –
C[C@H]1CN(c2cnc3scc(-c4ccc5oc(N)nc5c4)c3c2)CCN1 [Compound 399] | > 10 µM | > 10 µM | > 10 µM | > 10 µM | – | – | – | –
Nc1nc2cc(-c3ccc4ncc(N5CC(C(=O)N6CCOCC6)C5)nc4c3)ccc2o1 [Compound 252] | < 10 µM | < 10 µM | < 10 µM | > 10 µM | – | – | – | –
Nc1nc2cc(-c3ccc4ncc(N5CC(N)C5)nc4c3)ccc2o1 [Compound 367] | < 1 µM | < 1 µM | < 10 µM | < 1 µM | – | – | – | –
CN1CCN(Cc2nnc3ccc(-c4ccc5nc(N)oc5c4)cn23)CC1 [Compound 547] | > 10 µM | > 10 µM | > 10 µM | > 10 µM | – | – | – | –
CS(=O)(=O)N1CCC(Nc2cnc3ccc(-c4ccc5oc(N)nc5c4)cc3n2)CC1 [Compound 95] | < 0.1 µM | < 10 µM | < 0.1 µM | < 0.1 µM | – | – | – | –
Nc1nc2cc(-c3ccc4ncc(-c5ccccc5)nc4c3)ccc2o1 [Compound 180] | > 10 µM | > 10 µM | > 10 µM | < 1 µM | – | – | – | –

— patent US20150087627A1, “COMBINATION OF KINASE INHIBITORS AND USES THEREOF” (Intellikine LLC, priority 2011, published 2015)
